Measurements published in ChEMBL document CHEMBL1201862, “PubChem BioAssay data set” (2004).
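Method: 48-hour compound exposure of cells in 96-well plates, five concentrations, linear interpolation of endpoints. GI50 is the concentration that inhibits growth by half.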 Calls of active or inactive are those of the source. No stated cut-off is given here; in the data, active = GI50 up to about 1.1 µM and inactive = higher.

Key:
Test in all cases: NCI anticancer screen, dose series, 48 h
[1] = test system: OVCAR-5
[2] = test system: MCF7
[3] = test system: RXF 393
[4] = test system: SNB-75
[5] = test system: SF-539
[6] = test system: TK-10
[7] = test system: HT-29
[8] = test system: SF-268
[9] = test system: RPMI-8226
[10] = test system: SR
[11] = test system: A549
[12] = test system: CCRF-CEM
[13] = test system: LOX IMVI
[14] = test system: UO-31
[15] = test system: SK-OV-3
[16] = test system: KM12
[17] = test system: DU-145
[18] = test system: Hs-578T
[19] = test system: Malme-3M
[20] = test system: NCI-H460

Row | Compound | GI50 [1] | GI50 [2] | GI50 [3] | GI50 [4] | GI50 [5] | GI50 [6] | GI50 [7] | GI50 [8] | GI50 [9] | GI50 [10] | GI50 [11] | GI50 [12] | GI50 [13] | GI50 [14] | GI50 [15] | GI50 [16] | GI50 [17] | GI50 [18] | GI50 [19] | GI50 [20]
1 | COc1ccc(C2=NN(C(=N)S)C(c3ccccc3)C2)cc1 (stereo not given) | 58.2 µM (inactive) | 22.5 µM (inactive) | 24.4 µM (inactive) | 29 µM (inactive) | 61.5 µM (inactive) | 37.8 µM (inactive) | 38.9 µM (inactive) | 43.6 µM (inactive) | 23.6 µM (inactive) | 23.2 µM (inactive) | 34.8 µM (inactive) | 33.2 µM (inactive) | 38.3 µM (inactive) | 43.4 µM (inactive) | 46.6 µM (inactive) | 35.7 µM (inactive) | 53.6 µM (inactive) | 75.7 µM (inactive) | 30.5 µM (inactive) | 30 µM (inactive)
2 | O=C(C[C@@H]1NCCC[C@H]1O)Cn1cnc2cc(Br)c(Cl)cc2c1=O | < 0.0135 µM (active) | < 0.01 µM (active) | 0.0277 µM (active) | 0.0403 µM (active) | 0.023 µM (active) | 0.0491 µM (active) | 0.022 µM (active) | 0.0315 µM (active) | 0.0243 µM (active) | 0.0146 µM (active) | 0.0128 µM (active) | 0.0192 µM (active) | < 0.01 µM (active) | 0.0376 µM (active) | < 0.0118 µM (active) | 0.0171 µM (active) | 0.025 µM (active) | 0.0274 µM (active) | 0.0318 µM (active) | 0.0127 µM (active)
3 | O=C1Nc2cccc(Cl)c2/C1=C\c1c(-c2ccccc2)nc2n1CCS2 | 22.8 µM (inactive) | 18.4 µM (inactive) | 19.6 µM (inactive) | 24 µM (inactive) | 17.1 µM (inactive) | 13.2 µM (inactive) | 20.3 µM (inactive) | 20.3 µM (inactive) | 16.5 µM (inactive) | 19.8 µM (inactive) | 18.6 µM (inactive) | 15 µM (inactive) | 16 µM (inactive) | 19.1 µM (inactive) | 24.4 µM (inactive) | 20.8 µM (inactive) | 19.8 µM (inactive) | 18.9 µM (inactive) | 20.2 µM (inactive) | 17.8 µM (inactive)
4 | Cc1ccc(S(=O)(=O)Oc2coc(CO)cc2=O)cc1 | 17.8 µM (inactive) | 4.7 µM (inactive) | 13.5 µM (inactive) | 14.2 µM (inactive) | 20.2 µM (inactive) | 17.5 µM (inactive) | 12.4 µM (inactive) | 9.42 µM (inactive) | 3.97 µM (inactive) | 3.82 µM (inactive) | 14.8 µM (inactive) | 3.08 µM (inactive) | 3.05 µM (inactive) | 14.1 µM (inactive) | 17.1 µM (inactive) | 4.86 µM (inactive) | 12.2 µM (inactive) | 19.5 µM (inactive) | 16.2 µM (inactive) | 14.4 µM (inactive)
5 | O=C(O)CC1C(=O)OC2C3COC(=O)c4cc(O)c(O)c(O)c4-c4c(cc(O)c(O)c4O)C(=O)OC2C(OC(=O)c2cc(O)c(O)c4c2C1C(O)C(=O)O4)C(OC(=O)c1cc(O)c(O)c(O)c1)O3 (stereo not given) | 13.5 µM (inactive) | 16.9 µM (inactive) | 4.39 µM (inactive) | 3.35 µM (inactive) | 52.5 µM (inactive) | > 100 µM (inactive) | 13.6 µM (inactive) | 36.6 µM (inactive) | 36.9 µM (inactive) | 33.7 µM (inactive) | 21.6 µM (inactive) | 13.7 µM (inactive) | 14 µM (inactive) | 27.2 µM (inactive) | 18.5 µM (inactive) | 17 µM (inactive) | 36.4 µM (inactive) | 56.5 µM (inactive) | > 100 µM (inactive) | 16 µM (inactive)
6 | O=CNc1ccccc1OCCOc1ccccc1NC=O | > 100 µM (inactive) | > 100 µM (inactive) | > 100 µM (inactive) | > 100 µM (inactive) | > 100 µM (inactive) | > 100 µM (inactive) | > 100 µM (inactive) | > 100 µM (inactive) | > 100 µM (inactive) | > 100 µM (inactive) | > 100 µM (inactive) | > 100 µM (inactive) | > 100 µM (inactive) | > 100 µM (inactive) | > 100 µM (inactive) | > 100 µM (inactive) | > 100 µM (inactive) | > 100 µM (inactive) | > 100 µM (inactive) | > 100 µM (inactive)
7 | CC1=NN(C(=O)CC(=O)Nc2cccc(Cl)c2)C(=O)C1/N=N\c1ccc(S(=O)(=O)c2ccc(/N=N/C3C(=O)N(C(=O)CC(=O)Nc4cccc(Cl)c4)N=C3C)cc2)cc1 (stereo not given) | > 100 µM (inactive) | > 100 µM (inactive) | > 100 µM (inactive) | > 100 µM (inactive) | 22.6 µM (inactive) | > 100 µM (inactive) | > 100 µM (inactive) | > 100 µM (inactive) | > 100 µM (inactive) | > 100 µM (inactive) | > 100 µM (inactive) | > 100 µM (inactive) | > 100 µM (inactive) | > 100 µM (inactive) | > 100 µM (inactive) | > 100 µM (inactive) | 83.8 µM (inactive) | > 100 µM (inactive) | > 100 µM (inactive) | > 100 µM (inactive)
